The source of these data is patent US8722849B2, “Polypeptides” (Novo Nordisk A/S, priority 2011, dated 2014).

In general, pEC50 refers to the EC50 on a negative log10 scale, so that one unit is a factor of ten. Broadly, the solubility is how much of the substance goes into solution per volume.

Data set [1] addresses T1, human amylin receptor (amylin 3(a) receptor: human calcitonin receptor + RAMP-3) (Homo sapiens, UniProt O60896+P30988).
T1 construct: expressed in transfected cells; host or cells: BHK570
T1 sequence (P30988 25-474): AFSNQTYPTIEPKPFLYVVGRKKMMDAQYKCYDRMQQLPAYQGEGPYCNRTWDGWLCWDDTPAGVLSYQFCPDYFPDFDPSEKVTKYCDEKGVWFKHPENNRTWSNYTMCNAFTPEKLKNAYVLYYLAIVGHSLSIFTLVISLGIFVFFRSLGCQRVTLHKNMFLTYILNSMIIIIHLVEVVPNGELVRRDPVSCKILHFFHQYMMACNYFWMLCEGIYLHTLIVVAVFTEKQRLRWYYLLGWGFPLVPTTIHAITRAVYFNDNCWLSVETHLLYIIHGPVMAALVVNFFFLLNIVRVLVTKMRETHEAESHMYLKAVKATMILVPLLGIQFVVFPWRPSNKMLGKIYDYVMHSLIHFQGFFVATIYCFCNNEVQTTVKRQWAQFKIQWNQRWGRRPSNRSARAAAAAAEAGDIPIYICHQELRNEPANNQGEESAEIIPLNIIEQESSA
T1 sequence (O60896 24-148 partner): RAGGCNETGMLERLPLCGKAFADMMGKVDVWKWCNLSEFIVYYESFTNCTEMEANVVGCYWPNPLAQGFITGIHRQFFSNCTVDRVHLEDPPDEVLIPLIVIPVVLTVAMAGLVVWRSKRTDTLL
Briefly: Assay (II)a functional CRE-luciferase assay, human amylin receptor. It is filed as cell-based. Particulars: Table 2; BHK amylin 3(a)-receptor/CRE-luc cells.

In data set [2] the target is T2, human calcitonin receptor (Homo sapiens, UniProt P30988).
T2 construct: expressed in transfected cells; host or cells: BHK570
T2 sequence (P30988 25-474): T1 sequence (P30988 25-474)
Description: Assay (II)a functional CRE-luciferase assay, human calcitonin receptor. It counts as cell-based.

Data set [3] is described as follows: Assay (III) ThT fibrillation assay for physical stability. It is filed as physicochemical. Summed up: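 Freshly prepared formulations, pH-adjusted, with 1 μM ThT; four or eight replicates incubated at 37 °C under 960 rpm orbital shaking. Fluorescence (ex 444/em 485 nm) read every 20 min; […]. Peptide concentration measured by RP-HPLC before and after the run.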

Data set [4] can be described thus: Assay (IV) determination of solubility. It counts as physicochemical. The method, boiled down:
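Polypeptide in water (~500 nmol/ml stock) was mixed 1:1 with 100 mM buffers from pH 3.0 to 8.0 (glycylglycine pH 3.0–5.0; bistrispropane pH 6.0–8.0). After 18 hours at room temperature, samples were centrifuged and the polypeptide remaining in solution was quantified by HPLC.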

[5] abbreviates: Table 7, human calcitonin (CTa) receptor.
The mark [6] stands for this setting: bistrispropane buffer, pH 6, pH 6.0, read-out: Solubility pH 6.0.
[7] abbreviates: bistrispropane buffer, pH 6.5, pH 6.5, read-out: Solubility pH 6.5.
[8] abbreviates: bistrispropane buffer, pH 7, pH 7.0, read-out: Solubility pH 7.0.
Where [9] appears, read: bistrispropane buffer, pH 7.5, pH 7.5, read-out: Solubility pH 7.5.
Where [10] appears, read: bistrispropane buffer, pH 8, pH 8.0, read-out: Solubility pH 8.0.
[11] abbreviates: glycylglycine buffer, pH 3, pH 3.0, read-out: Solubility pH 3.0.
The mark [12] stands for this setting: glycylglycine buffer, pH 4, pH 4.0, 18 hours at room temperature, Table 2, read-out: Solubility pH 4.0.
[13] abbreviates: glycylglycine buffer, pH 4, pH 4.0, read-out: Solubility pH 4.0.
The mark [14] stands for this setting: glycylglycine buffer, pH 5, pH 5.0, read-out: Solubility pH 5.0.
Setting [15] is: bistrispropane buffer, pH 7, pH 7.0, 18 hours at room temperature, Table 3, read-out: Solubility pH 7.0.

Structures are written as SMILES. pEC50: −log10 of the molar value. Values after ≈ are worked out from the molar mass of the structure shown. Read-outs that look alike come from different tables or passages of the source. Starred links: 1 amine or outer side, 2 acyl side, 3 side chain; linkers in the order of their positions; H or OH if unused. Positions of bridges follow the written chain, without caps; N, C: chain ends. Residues, ends and D or L forms follow the SMILES beside them. *: point of attachment. C20 diacid = O=C(O)CCCCCCCCCCCCCCCCCCC(=O)*; C18 diacid = O=C(O)CCCCCCCCCCCCCCCCC(=O)*; γGlu = O=C(O)[C@H](CCC(=O)[*:2])N[*:1]

Turning to `CC[C@H](C)[C@H](NC(=O)[C@@H]1CCCN1C(=O)CNC(=O)[C@H](Cc1ccccc1)NC(=O)[C@H](CC(N)=O)NC(=O)[C@H](CO)NC(=O)[C@H](CO)NC(=O)[C@H](CO)NC(=O)[C@H](Cc1c[nH]cn1)NC(=O)[C@H](Cc1c[nH]cn1)NC(=O)[C@H](CC(C)C)NC(=O)[C@H](Cc1ccccc1)NC(=O)[C@H](CCC(=O)O)NC(=O)[C@H](C)NC(=O)[C@H](CC(C)C)NC(=O)[C@H](CCCNC(=N)N)NC(=O)[C@H](CCC(N)=O)NC(=O)[C@@H](NC(=O)[C@H](C)NC(=O)[C@@H]1CSSC[C@H](NC(=O)[C@H](Cc2c[nH]cn2)NC(=O)[C@H](Cc2c[nH]cn2)NC(=O)[C@H](Cc2c[nH]cn2)NC(=O)CC[C@H](NC(=O)CCCCCCCCCCCCCCCCCCC(=O)O)C(=O)O)C(=O)N[C@@H](CC(N)=O)C(=O)N[C@@H]([C@@H](C)O)C(=O)N[C@@H](C)C(=O)N[C@@H]([C@@H](C)O)C(=O)N1)[C@@H](C)O)C(=O)N[C@@H](CC(C)C)C(=O)N1CCC[C@H]1C(=O)N1CCC[C@H]1C(=O)N[C@H](C(=O)N[C@@H](CC(N)=O)C(=O)N[C@H](C(=O)NCC(=O)N[C@@H](CO)C(=O)N[C@@H](CCC(=O)O)C(=O)N[C@H](C(=O)N[C@@H](Cc1ccc(O)cc1)C(N)=O)[C@@H](C)O)C(C)C)[C@@H](C)O` [Example 63, N-alpha-[(S)-4-Carboxy-4-(19-carboxynonadecanoylamino)butyryl]-His-His-[His1,Glu14,His17,Ser21,Glu35]-pramlintide] ({C20 diacid-γGlu}-HHHCNTATCATQRLAEFLHHSSSNFGPILPPTNVGSETY-NH2; disulfide 4-9 (inferred); C-terminus assumed), the values for the pEC50 in data set [1] and in data set [2] (setting [5]) were 9.25 and 9.20, respectively. Also, in data set [3] (ThT fibrillation assay), the “ThT pH 4.0 lag time (h)” value is on record as 2 h. For the same compound, the solubility at 18 h in data set [4] (setting [6]) was 1 µM (≈ 4.73 µg/mL); in data set [4] (setting [7]), 2 µM (≈ 9.45 µg/mL); in data set [4] (setting [8]), 75 µM (≈ 355 µg/mL); in data set [4] (setting [9]), over 200 µM; in data set [4] (setting [10]) it was over 200 µM; in data set [4] (setting [11]) it was over 200 µM. For the same compound, the solubility at 18 h in data set [4] (setting [12]), in data set [4] (setting [13]) and in data set [4] (setting [14]) was over 200 µM in each case.

As for `CC[C@H](C)[C@H](NC(=O)[C@@H]1CCCN1C(=O)CNC(=O)[C@H](Cc1ccccc1)NC(=O)[C@H](CC(N)=O)NC(=O)[C@H](CCC(N)=O)NC(=O)[C@H](CO)NC(=O)[C@H](CO)NC(=O)[C@H](Cc1c[nH]cn1)NC(=O)[C@H](CCCNC(=N)N)NC(=O)[C@H](CC(C)C)NC(=O)[C@H](Cc1ccccc1)NC(=O)[C@H](CCC(=O)O)NC(=O)[C@H](C)NC(=O)[C@H](CC(C)C)NC(=O)[C@H](CCCNC(=N)N)NC(=O)[C@H](CCC(N)=O)NC(=O)[C@@H](NC(=O)[C@H](C)NC(=O)[C@@H]1CSSC[C@H](NC(=O)[C@H](CCC(=O)O)NC(=O)[C@H](CCCNC(=N)N)NC(=O)[C@H](CCC(=O)O)NC(=O)CC[C@H](NC(=O)CCCCCCCCCCCCCCCCCCC(=O)O)C(=O)O)C(=O)N[C@@H](CC(N)=O)C(=O)N[C@@H]([C@@H](C)O)C(=O)N[C@@H](C)C(=O)N[C@@H]([C@@H](C)O)C(=O)N1)[C@@H](C)O)C(=O)N[C@@H](CC(C)C)C(=O)N1CCC[C@H]1C(=O)N1CCC[C@H]1C(=O)N[C@H](C(=O)N[C@@H](CC(N)=O)C(=O)N[C@H](C(=O)NCC(=O)N[C@@H](CO)C(=O)N[C@@H](CCC(N)=O)C(=O)N[C@H](C(=O)N1CCC[C@H]1C(N)=O)[C@@H](C)O)C(C)C)[C@@H](C)O` [Example 162, N-alpha-[(S)-4-Carboxy-4-(19-carboxynonadecanoylamino)butyryl]-Glu-Arg-[Glu1,Glu14,Arg17,Gln21,Gln35,Pro37]-pramlintide] ({C20 diacid-γGlu}-ERECNTATCATQRLAEFLRHSSQNFGPILPPTNVGSQTP-NH2; disulfide 4-9), the pEC50 is 9.39 in data set [1] and 8.66 in data set [2] (Table 11, read-out: CTa receptor human EC50). The “ThT pH 4.0 lag time” value in data set [3] (Table 8), in data set [3] (Table 9) and in data set [3] (ThT fibrillation assay) was over 45 h each time. Further, in data set [3] (ThT fibrillation assay), the “ThT pH 4.0 lag time (h)” value is on record as over 45 h. The solubility at 18 h was over 200 µM in data set [4] (setting [6]); over 200 µM in data set [4] (setting [7]); over 200 µM in data set [4] (setting [15]); over 200 µM in data set [4] (bistrispropane buffer, pH 7, pH 7.0, Table 8, read-out: Solubility pH 7.0); over 200 µM in data set [4] (bistrispropane buffer, pH 7, pH 7.0, Table 9, read-out: Solubility pH 7.0); over 200 µM in data set [4] (setting [8]). For the same compound, the solubility at 18 h in data set [4] (bistrispropane buffer, pH 7.5, pH 7.5, Table 9, read-out: Solubility pH 7.5) was over 200 µM; in data set [4] (setting [9]) it was over 200 µM; in data set [4] (setting [10]), over 200 µM; in data set [4] (setting [11]) it was over 200 µM; in data set [4] (setting [12]) it was over 200 µM; in data set [4] (setting [13]), over 200 µM. Moreover, the solubility at 18 h in data set [4] (setting [14]) was over 200 µM.

Regarding `CC[C@H](C)[C@H](NC(=O)[C@@H]1CCCN1C(=O)CNC(=O)[C@H](Cc1ccccc1)NC(=O)[C@H](CC(N)=O)NC(=O)[C@H](CC(N)=O)NC(=O)[C@H](CO)NC(=O)[C@H](CO)NC(=O)[C@H](Cc1c[nH]cn1)NC(=O)[C@H](Cc1c[nH]cn1)NC(=O)[C@H](CC(C)C)NC(=O)[C@H](Cc1ccccc1)NC(=O)[C@H](CCC(=O)O)NC(=O)[C@H](C)NC(=O)[C@H](CC(C)C)NC(=O)[C@H](CCCNC(=N)N)NC(=O)[C@H](CCC(N)=O)NC(=O)[C@@H](NC(=O)[C@H](C)NC(=O)[C@@H]1CSSC[C@H](NC(=O)[C@H](Cc2c[nH]cn2)NC(=O)[C@H](Cc2c[nH]cn2)NC(=O)CC[C@H](NC(=O)CCCCCCCCCCCCCCCCC(=O)O)C(=O)O)C(=O)N[C@@H](CC(N)=O)C(=O)N[C@@H]([C@@H](C)O)C(=O)N[C@@H](C)C(=O)N[C@@H]([C@@H](C)O)C(=O)N1)[C@@H](C)O)C(=O)N[C@@H](CC(C)C)C(=O)N1CCC[C@H]1C(=O)N1CCC[C@H]1C(=O)N[C@H](C(=O)N[C@@H](CC(N)=O)C(=O)N[C@H](C(=O)NCC(=O)N[C@@H](CO)C(=O)N[C@@H](CC(N)=O)C(=O)N[C@H](C(=O)N[C@@H](Cc1ccc(O)cc1)C(N)=O)[C@@H](C)O)C(C)C)[C@@H](C)O` [Example 47, N-alpha-[(S)-4-Carboxy-4-(17-carboxyheptadecanoylamino)butyryl]-His-[His1,Glu14,His17]-pramlintide] ({C18 diacid-γGlu}-HHCNTATCATQRLAEFLHHSSNNFGPILPPTNVGSNTY-NH2; disulfide 3-8 (inferred); C-terminus assumed), the pEC50 in data set [1] is 10.23; in data set [2] (setting [5]), 9.59. Moreover, the “ThT pH 4.0 lag time (h)” value in data set [3] (ThT fibrillation assay) is 6 h. The solubility at 18 h in data set [4] (setting [6]) was 168 µM (≈ 768 µg/mL); in data set [4] (setting [7]) it was 87 µM (≈ 398 µg/mL); in data set [4] (setting [15]), 118 µM (≈ 540 µg/mL); in data set [4] (setting [8]), 118 µM (≈ 540 µg/mL); in data set [4] (setting [9]), over 200 µM; in data set [4] (setting [10]), over 200 µM. Further, the solubility at 18 h in data set [4] (setting [11]), in data set [4] (setting [12]), in data set [4] (setting [13]) and in data set [4] (setting [14]) was over 200 µM each time.
